Data reported in ChEMBL document CHEMBL5241092, “The antibacterial activity of fluoroquinolone derivatives: An update (2018-2021)” (2021).
Values after ≈ are worked out from the molar mass of the structure shown.

Experiments:
Format in all cases: functional
Listeria monocytogenes = experiment: Antibacterial activity against Listeria monocytogenes
Staphylococcus aureus = experiment: Antibacterial activity against Staphylococcus aureus
Klebsiella pneumoniae = experiment: Antibacterial activity against Klebsiella pneumoniae
[1] = test system: Yersinia pseudotuberculosis; experiment: Antibacterial activity against Yersinia pseudotuberculosis
[2] = test system: Lactobacillus acidophilus; experiment: Antibacterial activity against Lactobacillus acidophilus
Pseudomonas aeruginosa = experiment: Antibacterial activity against Pseudomonas aeruginosa
Bacillus cereus = experiment: Antibacterial activity against Bacillus cereus
Escherichia coli = experiment: Antibacterial activity against Escherichia coli
Enterococcus faecalis = experiment: Antibacterial activity against Enterococcus faecalis
[3] = test system: Staphylococcus epidermidis; experiment: Antibacterial activity against Staphylococcus epidermidis
Bacillus subtilis = experiment: Antibacterial activity against Bacillus subtilis

| Compound | MIC (Listeria monocytogenes) | MIC (Staphylococcus aureus) | MIC (Klebsiella pneumoniae) | MIC [1] | MIC [2] | MIC (Pseudomonas aeruginosa) | MIC (Bacillus cereus) | MIC (Escherichia coli) | MIC (Enterococcus faecalis) | MIC [3] | MIC (Bacillus subtilis) |
| --- | --- | --- | --- | --- | --- | --- | --- | --- | --- | --- | --- |
| COc1c(N2C[C@H]3CCCN(C(=O)c4ccccc4)[C@H]3C2)c(F)cc2c(=O)c(C(=O)O)cn(C3CC3)c12 | < 1.23 µg/mL | < 1.23 µg/mL | < 1.23 µg/mL | < 1.23 µg/mL | < 1.23 µg/mL | < 1.23 µg/mL | < 1.23 µg/mL | < 1.23 µg/mL | < 1.23 µg/mL | – | – |
| COc1c(N2C[C@H]3CCCN(Cc4ccc(F)cc4)[C@H]3C2)c(F)cc2c(=O)c(C(=O)O)cn(C3CC3)c12 | < 2.39 µg/mL | < 2.39 µg/mL | < 2.39 µg/mL | < 2.39 µg/mL | < 2.39 µg/mL | < 2.39 µg/mL | – | < 2.39 µg/mL | < 2.39 µg/mL | – | – |
| C=CCn1c(SCC(=O)N2CCN(c3cc4c(cc3F)c(=O)c(C(=O)O)cn4C3CC3)CC2)nnc1-c1ccccc1 | – | 1.42 µg/mL (≈ 2.41 µM) | 1.42 µg/mL (≈ 2.41 µM) | – | – | 1.42 µg/mL (≈ 2.41 µM) | – | 1.42 µg/mL (≈ 2.41 µM) | – | – | – |
| COc1c(N2CCN(/N=N/c3nc(C)cc(C)n3)CC2)c(F)cc2c(=O)c(C(=O)C(C(C)=O)C(C)=O)cn(C3CC3)c12 | – | 0.015 µg/mL (≈ 0.026 µM) | – | – | – | – | – | – | – | 0.015 µg/mL (≈ 0.026 µM) | 0.015 µg/mL (≈ 0.026 µM) |
| COc1c(N2C[C@H]3CCCN(S(=O)(=O)c4ccc(F)cc4)[C@H]3C2)c(F)cc2c(=O)c(C(=O)O)cn(C3CC3)c12 | < 2.42 µg/mL | < 2.42 µg/mL | < 2.42 µg/mL | < 2.42 µg/mL | < 2.42 µg/mL | < 2.42 µg/mL | – | < 2.42 µg/mL | < 2.42 µg/mL | – | – |
| COc1c(N2C[C@H]3CCCN(S(=O)(=O)c4ccc(Cl)cc4)[C@H]3C2)c(F)cc2c(=O)c(C(=O)O)cn(C3CC3)c12 | < 2.42 µg/mL | < 2.42 µg/mL | < 2.42 µg/mL | < 2.42 µg/mL | < 2.42 µg/mL | < 2.42 µg/mL | – | < 2.42 µg/mL | < 2.42 µg/mL | – | – |
| COc1c(N2C[C@@H]3CCCN[C@@H]3C2)c(F)cc2c(=O)c(C(=O)O)cn(C3CC3)c12 [MOXIFLOXACIN] | < 0.6 µg/mL | – | – | – | – | – | < 0.6 µg/mL | – | < 0.6 µg/mL | – | – |
| O=C(O)c1cn(C2CC2)c2cc(N3CCN(Cn4nc(-c5ccccn5)oc4=S)CC3)c(F)cc2c1=O | – | 0.031 µg/mL (≈ 0.0593 µM) | – | – | – | 0.031 µg/mL (≈ 0.0593 µM) | – | 0.031 µg/mL (≈ 0.0593 µM) | – | – | 0.031 µg/mL (≈ 0.0593 µM) |
| COc1c(N2C[C@H]3CCCN(S(=O)(=O)c4ccc(C)cc4)[C@H]3C2)c(F)cc2c(=O)c(C(=O)O)cn(C3CC3)c12 | < 2.42 µg/mL | < 2.42 µg/mL | < 2.42 µg/mL | < 2.42 µg/mL | < 2.42 µg/mL | < 2.42 µg/mL | – | < 2.42 µg/mL | < 2.42 µg/mL | – | – |
| CC(=O)C(C(C)=O)C(=O)c1cn(C2CC2)c2cc(N3CCN(/N=N/c4nc(C)cc(C)n4)CC3)c(F)cc2c1=O | – | 0.015 µg/mL (≈ 0.0274 µM) | – | – | – | – | – | – | – | 0.015 µg/mL (≈ 0.0274 µM) | 0.015 µg/mL (≈ 0.0274 µM) |
| COc1c(N2C[C@H]3CCCN(Cc4ccc(C)cc4)[C@H]3C2)c(F)cc2c(=O)c(C(=O)O)cn(C3CC3)c12 | < 2.39 µg/mL | < 2.39 µg/mL | < 2.39 µg/mL | < 2.39 µg/mL | < 2.39 µg/mL | < 2.39 µg/mL | – | < 2.39 µg/mL | < 2.39 µg/mL | – | – |
| O=C(O)c1cn(C2CC2)c2cc(N3CCN(Cn4nc(-c5cccnc5)oc4=S)CC3)c(F)cc2c1=O | – | 0.031 µg/mL (≈ 0.0593 µM) | – | – | – | 0.031 µg/mL (≈ 0.0593 µM) | – | 0.031 µg/mL (≈ 0.0593 µM) | – | – | 0.031 µg/mL (≈ 0.0593 µM) |
| COc1c(N2C[C@H]3CCCN(C(=O)c4ccc(C)cc4)[C@H]3C2)c(F)cc2c(=O)c(C(=O)O)cn(C3CC3)c12 | ≤ 1.23 µg/mL | ≤ 1.23 µg/mL | < 1.23 µg/mL | < 1.23 µg/mL | < 1.23 µg/mL | < 1.23 µg/mL | ≤ 1.23 µg/mL | < 1.23 µg/mL | ≤ 1.23 µg/mL | – | – |
| COc1c(N2C[C@H]3CCCN(S(=O)(=O)c4ccc(Br)cc4)[C@H]3C2)c(F)cc2c(=O)c(C(=O)O)cn(C3CC3)c12 | < 2.42 µg/mL | < 2.42 µg/mL | < 2.42 µg/mL | < 2.42 µg/mL | < 2.42 µg/mL | < 2.42 µg/mL | – | < 2.42 µg/mL | < 2.42 µg/mL | – | – |
| COc1c(N2C[C@H]3CCCN(Cc4ccc(Cl)cc4)[C@H]3C2)c(F)cc2c(=O)c(C(=O)O)cn(C3CC3)c12 | < 2.39 µg/mL | < 2.39 µg/mL | < 2.39 µg/mL | < 2.39 µg/mL | < 2.39 µg/mL | < 2.39 µg/mL | – | < 2.39 µg/mL | < 2.39 µg/mL | – | – |
| O=C(CSC(=S)N1CCN(c2cc3c(cc2F)c(=O)c(C(=O)O)cn3C2CC2)CC1)Nc1cccc(Cl)c1 | – | – | – | – | – | 0.195 µg/mL (≈ 0.339 µM) | – | 0.024 µg/mL (≈ 0.0417 µM) | – | 0.024 µg/mL (≈ 0.0417 µM) | – |
| COc1ccc(S(=O)(=O)N2CCC[C@@H]3CN(c4c(F)cc5c(=O)c(C(=O)O)cn(C6CC6)c5c4OC)C[C@@H]32)cc1 | < 2.42 µg/mL | < 2.42 µg/mL | < 2.42 µg/mL | < 2.42 µg/mL | < 2.42 µg/mL | < 2.42 µg/mL | – | < 2.42 µg/mL | < 2.42 µg/mL | – | – |
